Literature values, collected in patent EP1219295A1, “Controlled release formulation of valproate” (Abbott Laboratories, priority 2000, dated 2002).
Read-outs that look alike come from different tables or passages of the source.

How the values were obtained:
[1] = in vivo

Row | SMILES | patients affected by GI irritation [1] | half life (in adults) | half life (in children)
1 | CCCC(CCC)C(=O)O [valproate] | up to one third | – | –
2 | CCCC(CCC)C(=O)O [valproic acid, 2-Propylpentanoic acid] | – | six and seventeen | four and fourteen
